In US11198713B2, “Agents modulating beta-catenin functions and methods thereof” (FOG PHARMACEUTICALS, INC., priority 2017, dated 2021):
Numbered stars: 1 amine (or outer) side, 2 acyl side, 3 side chain; on linkers, the order of the positions; unused ones are H or OH. Bridge positions count the residues as written; N and C are the ends. Square brackets hold non-standard residues; d marks the D form. Peptide text beside a SMILES is read from it. X10 = CN(CC=[*:3])C[C@@](C)(N[*:1])C(=O)[*:2]; S8 = C=CCCCCCC[C@](C)(N)C(=O)O

Biological target: T1, full-length beta-catenin (Axin site) (Homo sapiens, UniProt P35222)
T1 construct: 15 nM full-length beta-catenin, 20 nM FITC labeled peptide in buffer
T1 sequence (P35222 1-781): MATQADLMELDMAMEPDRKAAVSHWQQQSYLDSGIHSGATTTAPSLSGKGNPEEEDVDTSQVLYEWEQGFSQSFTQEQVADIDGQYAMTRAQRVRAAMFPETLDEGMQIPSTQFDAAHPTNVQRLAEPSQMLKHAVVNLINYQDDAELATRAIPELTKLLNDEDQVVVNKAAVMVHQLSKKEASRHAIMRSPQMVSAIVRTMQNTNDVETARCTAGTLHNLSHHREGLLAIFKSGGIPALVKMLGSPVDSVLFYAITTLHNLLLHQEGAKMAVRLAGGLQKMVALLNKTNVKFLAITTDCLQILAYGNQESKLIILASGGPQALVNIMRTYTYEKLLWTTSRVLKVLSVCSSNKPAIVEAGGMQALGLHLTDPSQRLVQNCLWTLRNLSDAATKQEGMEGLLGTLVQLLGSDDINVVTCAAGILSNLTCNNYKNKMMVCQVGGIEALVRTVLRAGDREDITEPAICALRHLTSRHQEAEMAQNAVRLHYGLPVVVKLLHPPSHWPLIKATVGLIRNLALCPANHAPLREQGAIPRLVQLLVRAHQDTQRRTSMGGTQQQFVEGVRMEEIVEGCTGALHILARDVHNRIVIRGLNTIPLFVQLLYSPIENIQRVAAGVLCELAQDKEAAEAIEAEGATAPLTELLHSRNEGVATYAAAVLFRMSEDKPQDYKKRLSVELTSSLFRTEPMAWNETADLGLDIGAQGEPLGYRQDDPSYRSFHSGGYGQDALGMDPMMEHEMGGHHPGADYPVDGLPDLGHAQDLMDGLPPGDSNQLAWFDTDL
Test: Competition fluorescence polarization assay (Axin site probe)
Assay type: binding
Settings: competition fluorescence polarization, Table 2; read-out: in vitro FP EC50
Method: FIG. 1. […] Peptide solutions were prepared in buffer (50 mM Tris pH 8.0, 250 mM NaCl, 2% glycerol, 0.5 mM EDTA, 0.02% w/v sodium azide) using a 3-fold serial dilution from 5 μM. Probe solution (15 nM full-length 13-Catenin, 20 nM FITC labeled peptide (FITC-PEG1-PQ-S5-ILD-S5-HVRRVWR (SEQ ID NO: 1) (hydrocarbon staple formed by two S5 via olefin metathesis)) in buffer) was prepared and incubated for 5 minutes, then 40 μL per well plated in a black polystyrene 384-well plate (Corning). Equal volume of the titrated peptide was added to the plate and incubated protected from light for 15 minutes prior to read. Reads were performed on a Spectramax M5 (Molecular Devices) in duplicate.
FIG. 7. […] BCL9 Competition FP assay: Peptide solutions were prepared in buffer (50 mM Tris pH 8.0, 250 mM NaCl, 2% glycerol, 0.5 mM EDTA, 0.02% w/v sodium azide) using a 3-fold serial dilution from 10 μM. Probe solution (250 nM full-length beta-catenin, 20 nM 5FAM labeled peptide in buffer) was prepared and 40 μL per well plated in a black polystyrene 384-well plate (Corning). Equal volume of the titrated peptide was added to the plate and incubated protected from light for 15 minutes prior to read. Reads were performed on a Spectramax M5 (Molecular Devices) in duplicate. Probe: Ac-[…]nLeu-Leu-2NapA-bala-bala-Lys5FAM-NH2 (SEQ ID NO: 2) (from Biochemistry, 2009, 48 (40), pp 9534-9541). Axin Competition FP assay: Peptide solutions were prepared in buffer (50 mM Tris pH 8.0, 250 mM NaCl, 2% glycerol, 0.5 mM EDTA, 0.02% w/v sodium azide) using a 3-fold serial dilution from 5 μM. Probe solution (15 nM full-length beta-catenin, 20 nM FITC labeled peptide in buffer) was prepared and incubated for 5 minutes, then 40 μL per well plated in a black polystyrene 384-well plate (Corning). Equal volume of the titrated peptide was added to the plate and incubated protected from light for 15 minutes prior to read. Reads were performed on a Spectramax M5 (Molecular Devices) in duplicate. Probe: FITC-StAx-33 from Grossmann et al. PNAS 109 17942-17947.

Q: Which EC50 does the source give for `CC[C@H](C)[C@@H]1NC(=O)[C@H](Cc2ccccn2)NC(=O)[C@H](C)NC(=O)[C@H](CC(=O)O)NC(=O)[C@H](CC(C)C)NC(=O)[C@H]([C@@H](C)CC)NC(=O)[C@](C)(NC(=O)[C@H](C)NC(C)=O)CCCCCCC=CCOC(=O)N2CC[C@@](C(=O)N[C@@H](Cc3c[nH]c4ccccc34)C(=O)N[C@H](C(=O)N[C@@H](Cc3c[nH]c4ccccc34)C(N)=O)C(C)C)(C2)NC1=O` (single isomer, unassigned) [FP0563c Isomer 2, Ac-A-R8-I-L-D-A-2pyr-I-MB-W-V-W-NH2] here?
A: > 5 µM

Q: With `CC[C@H](C)[C@@H]1NC(=O)[C@H](Cc2c[nH]cn2)NC(=O)[C@H](C)NC(=O)[C@H](CC(=O)O)NC(=O)[C@H](CC(C)C)NC(=O)[C@H]([C@@H](C)CC)NC(=O)[C@](C)(NC(=O)[C@H](C)NC(C)=O)CCCCCCC=CCOC(=O)N2CC[C@@](C(=O)N[C@@H](CCCNC(=N)N)C(=O)N[C@H](C(=O)N[C@@H](Cc3c[nH]c4ccccc34)C(N)=O)C(C)C)(C2)NC1=O` (single isomer, unassigned) [FP0217c Isomer 1, Ac-AR8ILDAHIMBRVW (SEQ ID NO: 280)] as the compound, how does the EC50 read?
A: 0.5 to 5 µM

Q: Which EC50 does the source give for `CC[C@H](C)[C@@H]1NC(=O)[C@H](Cc2c[nH]cn2)NC(=O)[C@H](C)NC(=O)[C@H](CC(=O)O)NC(=O)[C@H](CC(C)C)NC(=O)[C@H]([C@@H](C)CC)NC(=O)[C@](C)(NC(=O)[C@H](C)NC(C)=O)CN(C)CC=CCCCCCC[C@@](C)(C(=O)N[C@@H](CCCNC(=N)N)C(=O)N[C@H](C(=O)N[C@@H](Cc2c[nH]c3ccccc23)C(N)=O)C(C)C)NC1=O` [FP0335a, Ac-A-ME-I-L-D-A-H-I-S8-R-V-W-NH2] (Ac-A[X10]ILDAHI[S8]RVW-NH2; staple 2-9) here?
A: 0.1 to 0.5 µM

Q: For `CC[C@H](C)[C@@H]1NC(=O)[C@](C)(NC(=O)[C@H](CCC(N)=O)NC(=O)[C@@H]2CCCN2C(C)=O)CCCC=CCN(C)CC[C@](C)(C(=O)N[C@@H](Cc2c[nH]cn2)C(=O)N[C@H](C(=O)N[C@@H](CCCNC(=N)N)C(=O)N[C@@H](CCCNC(=N)N)C(=O)N[C@H](C(=O)N[C@@H](Cc2c[nH]c3ccccc23)C(=O)N[C@@H](CCCNC(=N)N)C(N)=O)C(C)C)C(C)C)NC(=O)[C@H](CC(=O)O)NC(=O)[C@H](CC(C)C)NC1=O` (single isomer, unassigned) [FP0776a, Ac-P-Q-R5-I-L-D-MG-H-V-R-R-V-W-R-NH2], which EC50 is on record?
A: 0.5 to 5 µM

Q: How did the EC50 turn out when `CC[C@H](C)[C@@H]1NC(=O)[C@](C)(NC(=O)[C@H](C)NC(C)=O)CCCCCCC=CCOC(=O)N2CC[C@@](C(=O)N[C@@H](CCCNC(=N)N)C(=O)N[C@H](C(=O)N[C@@H](Cc3c[nH]c4ccccc34)C(N)=O)C(C)C)(C2)NC(=O)[C@H](C)NC(=O)[C@H](Cc2c[nH]cn2)NC(=O)[C@H](C)NC(=O)[C@H](CC(=O)O)NC(=O)[C@H](CC(C)C)NC1=O` [FP0409c, Ac-A-R8-I-L-D-A-H-A-MB-R-V-W-NH2] was run?
A: > 5 µM

Q: Which EC50 does the source give for `CC[C@H](C)[C@@H]1NC(=O)[C@@]2(NC(=O)[C@H](CCC(N)=O)NC(=O)[C@@H]3CCCN3C(C)=O)CCN(CC=CCCC[C@](C)(C(=O)N[C@@H](Cc3c[nH]cn3)C(=O)N[C@H](C(=O)N[C@@H](CCCNC(=N)N)C(=O)N[C@@H](CCCNC(=N)N)C(=O)N[C@H](C(=O)N[C@@H](Cc3c[nH]c4ccccc34)C(=O)N[C@@H](CCCNC(=N)N)C(N)=O)C(C)C)C(C)C)NC(=O)[C@H](CC(=O)O)NC(=O)[C@H](CC(C)C)NC1=O)C2` (single isomer, unassigned) [FP0743a, Ac-P-Q-MC-I-L-D-R5-H-V-R-R-V-W-R-NH2] here?
A: > 5 µM

Q: `CC[C@H](C)[C@@H]1NC(=O)[C@H](Cc2c[nH]cn2)NC(=O)[C@H](C)NC(=O)[C@H](CC(=O)O)NC(=O)[C@H](CC(C)C)NC(=O)[C@H]([C@@H](C)CC)NC(=O)[C@](C)(NC(=O)[C@H](C)NC(C)=O)CCCCCC=CCOC(=O)N(C)C[C@@](C)(C(=O)N[C@@H](CCCNC(=N)N)C(=O)N[C@H](C(=O)N[C@@H](Cc2c[nH]c3ccccc23)C(N)=O)C(C)C)NC1=O` [FP0495c, Ac-A-R7-I-L-D-A-H-I-MD-R-V-W-NH2] was tested. Which EC50 did it give?
A: 0.1 to 0.5 µM

Q: How did the EC50 turn out when `CC[C@H](C)[C@@H]1NC(=O)[C@H](Cc2ccccn2)NC(=O)[C@H](C)NC(=O)[C@H](CC(=O)O)NC(=O)[C@H](CC(C)C)NC(=O)[C@H]([C@@H](C)CC)NC(=O)[C@](C)(NC(=O)[C@H](C)NC(C)=O)CCCCCCC=CCOC(=O)N2CC[C@@](C(=O)N[C@H](C(=O)N[C@H](C(=O)N[C@@H](Cc3c[nH]c4ccccc34)C(N)=O)C(C)C)C(C)(C)C)(C2)NC1=O` (single isomer, unassigned) [FP0568c Isomer 1, Ac-A-R8-I-L-D-A-2pyr-I-MB-tLeu-V-W-NH2] was run?
A: > 5 µM

Q: How did the EC50 turn out when `CCC[C@H](NC(=O)[C@]12CCN(C1)C(=O)OCC=CCCCCCC[C@@](C)(NC(=O)[C@H](C)NC(C)=O)C(=O)N[C@@H]([C@@H](C)CC)C(=O)N[C@@H](CC(C)C)C(=O)N[C@@H](CC(=O)O)C(=O)N[C@@H](C)C(=O)N[C@@H](Cc1ccccn1)C(=O)N[C@@H]([C@@H](C)CC)C(=O)N2)C(=O)N[C@H](C(=O)N[C@@H](Cc1c[nH]c2ccccc12)C(N)=O)C(C)C` (single isomer, unassigned) [FP0567c Isomer 1, Ac-A-R8-I-L-D-A-2pyr-I-MB-Nva-V-W-NH2] was run?
A: > 5 µM

Q: For `CC[C@H](C)[C@@H]1NC(=O)[C@](C)(NC(=O)[C@H](CCC(N)=O)NC(=O)[C@@H]2CCCN2C(C)=O)CCCN(C)CC=CCCC[C@](C)(C(=O)N[C@@H](Cc2c[nH]cn2)C(=O)N[C@H](C(=O)N[C@@H](CCCNC(=N)N)C(=O)N[C@@H](CCCNC(=N)N)C(=O)N[C@H](C(=O)N[C@@H](Cc2c[nH]c3ccccc23)C(=O)N[C@@H](CCCNC(=N)N)C(N)=O)C(C)C)C(C)C)NC(=O)[C@H](CC(=O)O)NC(=O)[C@H](CC(C)C)NC1=O` (single isomer, unassigned) [FP0783a, Ac-P-Q-MI-I-L-D-R5-H-V-R-R-V-W-R-NH2], which EC50 is on record?
A: 0.5 to 5 µM

Q: Which EC50 does the source give for `CC[C@H](C)[C@@H]1NC(=O)[C@H](Cc2ccccn2)NC(=O)[C@H](C)NC(=O)[C@H](CC(=O)O)NC(=O)[C@H](CC(C)C)NC(=O)[C@H]([C@@H](C)CC)NC(=O)[C@](C)(NC(=O)[C@H](C)NC(C)=O)CCCCCCC=CCOC(=O)N2CC[C@@](C(=O)N[C@@H](Cc3c[nH]c4ccccc34)C(=O)N[C@H](C(=O)N[C@@H](Cc3c[nH]c4ccccc34)C(N)=O)C(C)C)(C2)NC1=O` (single isomer, unassigned) [FP0563c Isomer 1, Ac-A-R8-I-L-D-A-2pyr-I-MB-W-V-W-NH2] here?
A: > 5 µM

Same assay, conditions: competition with FITC labeled Axin-site probe, 15 nM full-length beta-catenin; read-out: FP EC50

Q: Which EC50 does the source give for `CC[C@H](C)[C@@H]1NC(=O)[C@]2(NC(=O)[C@H](CCC(N)=O)NC(=O)[C@@H]3CCCN3C(C)=O)CCN(CC=CCCC[C@@](C)(C(=O)N[C@@H](Cc3c[nH]cn3)C(=O)N[C@H](C(=O)N[C@@H](CCCNC(=N)N)C(=O)N[C@@H](CCCNC(=N)N)C(=O)N[C@H](C(=O)N[C@@H](Cc3c[nH]c4ccccc34)C(=O)N[C@@H](CCCNC(=N)N)C(N)=O)C(C)C)C(C)C)NC(=O)[C@H](CC(=O)O)NC(=O)[C@H](CC(C)C)NC1=O)C2` (single isomer, unassigned) [FP-0751, Ac-P-Q-PS-I-L-D-S5-H-V-R-R-V-W-R-NH2] here?
A: > 5 µM

Q: How did the EC50 turn out when `CC[C@H](C)[C@@H]1NC(=O)C2(NC(=O)[C@H](CCC(N)=O)NC(=O)[C@@H]3CCCN3C(C)=O)CN(C2)C(=O)OCC=CCC[C@](C)(C(=O)N[C@@H](Cc2c[nH]cn2)C(=O)N[C@H](C(=O)N[C@@H](CCCNC(=N)N)C(=O)N[C@@H](CCCNC(=N)N)C(=O)N[C@H](C(=O)N[C@@H](Cc2c[nH]c3ccccc23)C(=O)N[C@@H](CCCNC(=N)N)C(N)=O)C(C)C)C(C)C)NC(=O)[C@H](CC(=O)O)NC(=O)[C@H](CC(C)C)NC1=O` (single isomer, unassigned) [FP-0721c, Ac-P-Q-Az-I-L-D-R4-H-V-R-R-V-W-R-NH2] was run?
A: 1.3 µM
